≈ marks a conversion by molar mass, not a printed value.
Experiments:
[1] = male, Sprague-Dawley, rat, in vivo, po, 100 mg/kg
Description: In another study, a single intravenous dose of two compounds was given to rats (N=3) at 30 mg/ml dosage following administration through the lateral tail vein in order to obtain the absolute oral bioavailability and clearance parameters. Compounds (10 mg/mL) was dissolved in 30% DMSO for IV injection and suspended in 0.5% CMC-Na for IG respectively.

[2] = tested on: smoke induced COPD mice model; experiment: Smoke induced COPD mice model; type: in vivo, C57BL/6 J mice
Description: The commercial non-filtered cigarettes containing 11 mg tar and 0.9 mg nicotine per cigarette were used in this study. Eight-week-old male C57BL/6 J mice (purchased from Shanghai Xipuer Yibikai animal Co) were divided into four groups as follows: Group 1 was the control group(NS6m), Group 2 was the animal model CS group(CS6m), Groups 3 was CS+Compound A 100 mpk group(LY100), Group 4 was CS+erythromycin group(EM100). Mice were placed in a Plexiglass chamber covered by a disposable filter. The animals received CS of 5 cigarettes/time, carried out twice per day and 5 days a week for 24 weeks. Mainstream CS was generated by an exposure system in which combustion of the cigarette was drawn into the mouse chambers via a peristaltic pump. In group 3 and 4, mice were orally administrated with Compound A (100 mg/kg) twice per day from the 12th week to 24th week. One week after the last CS exposure, animals were sacrificed by intraperitoneal injection of 10% chloral hydrate for the plasma, bronchoalveolar lavage fluid (BALF) and lung tissues collection.
The lung tissues were collected and inflated with 4% paraformaldehyde at a pressure of 25 cmH2O, fixed for 24 h in formalin, embedded with paraffin, sectioned in the sagittal plane, and stained with hematoxylin and eosin (H & E). Alveolus enlargement was quantified by measurement of the mean chord length of alveoli with Analysis software Image J (see FIGS. 5 & 6).
For the bronchoalveolar lavage fluid collection, lungs were lavaged with 1 ml of saline, and the resulting BALF was centrifuged at 3000 g for 15 minutes. Cells were washed three times and then analyzed on a ThermoFisher Countess II cytometer.

[3] = tested on: Haemophilus influenzae ATCC 49247; experiment: Antibacterial activity, agar dilution MIC; type: cell-based; conditions: ATCC49247, 20-24 hrs incubation, read-out: minimum inhibitory concentration MIC
Description: (§1) The antibacterial activity of Erythromycin and compounds of examples were evaluated by the agar dilution method, following the guidelines of the CLSI. […] Briefly, bacteria were grown overnight in adapted media (MHIIA with 5% of sheep blood for Streptococcus pneumoniae and Haemophilus influenzae, and MHIIA for the other bacteria strains) at 35° C., 5% CO2.
(§2) Cultures were centrifuged at 3000×g for 15 min. Pellets were diluted with 5 mls cold PBS and the OD600nm was adjusted to 10^8 CFU.mL^−1 with a spectrometer. Bacteria were then added to 96-well test plates. Compounds were diluted in DMSO in a 2 fold steps from 20 mg/ml in DMSO in 96 well plated and transferred to the test plate. During the incubation, the plate was maintained at 35° C., 5% CO2.
(§3) The MICs for Erythromycin and compounds of examples were determined after 20-24 hrs incubation.

[4] = tested on: Streptococcus pneumoniae ATCC 6301; experiment: Antibacterial activity, agar dilution MIC; type: cell-based; conditions: ATCC6301, 20-24 hrs incubation, read-out: minimum inhibitory concentration MIC
Description: as §1, §2, §3

[5] = tested on: Streptococcus pyogenes ATCC BAA-572; experiment: Antibacterial activity, agar dilution MIC; type: cell-based; conditions: ATCCBAA572, 20-24 hrs incubation, read-out: minimum inhibitory concentration MIC
Description: as §1, §2, §3

[6] = tested on: Enterococcus faecalis ATCC 29212; experiment: Antibacterial activity, agar dilution MIC; type: cell-based; conditions: ATCC29212, 20-24 hrs incubation, read-out: minimum inhibitory concentration MIC
Description: as §1, §2, §3

[7] = tested on: Streptococcus pneumoniae ATCC 49619; experiment: Antibacterial activity, agar dilution MIC; type: cell-based; conditions: ATCC49619, 20-24 hrs incubation, read-out: minimum inhibitory concentration MIC
Description: as §1, §2, §3

[8] = tested on: Acinetobacter baumanii ATCC 17978; experiment: Antibacterial activity, agar dilution MIC; type: cell-based; conditions: Acinetobacter baumannii, ATCC17978, 20-24 hrs incubation, read-out: minimum inhibitory concentration MIC
Description: as §1, §2, §3

[9] = tested on: Staphylococcus aureus ATCC 29213; experiment: Antibacterial activity, agar dilution MIC; type: cell-based; conditions: ATCC29213, 20-24 hrs incubation, read-out: minimum inhibitory concentration MIC
Description: as §1, §2, §3

[10] = tested on: Staphylococcus aureus NRS 384; experiment: Antibacterial activity, agar dilution MIC; type: cell-based; conditions: NRS384, 20-24 hrs incubation, read-out: minimum inhibitory concentration MIC
Description: as §1, §2, §3

[11] = tested on: Moraxella catarrhalis ATCC 43617; experiment: Antibacterial activity, agar dilution MIC; type: cell-based; conditions: ATCC43617, 20-24 hrs incubation, read-out: minimum inhibitory concentration MIC
Description: as §1, §2, §3

[12] = tested on: Acinetobacter baumannii ATCC-BAA-1605; experiment: Antibacterial activity, agar dilution MIC; type: cell-based; conditions: ATCCBAA1605, 20-24 hrs incubation, read-out: minimum inhibitory concentration MIC
Description: as §1, §2, §3

[13] = tested on: IL-8 expression in BEAS-2B cell; experiment: LPS induced IL-8 release by BEAS-2B (ELISA); type: cell-based; conditions: in words; BEAS-2B
Description: The inhibitory effect of compounds of Examples on the IL-8 expression in BEAS-2B cell was tested using the following method. BEAS-2B was purchased from ATCC (American Type Culture Collection, Manassas, Va.). Cells were maintained in growth medium (LHC-9) and cultured at 37° C. under 5% CO2. Compounds were dissolved in 0.1% DMSO. Erythromycin was used as a positive control.
For the assessment of the effect of compounds of Examples on IL-8 expression inhibition in BEAS-2B cell line, cells were plated in 24 well plate at a density of 100,000/mL, in a final volume of 1 mL of assay medium. Cells were incubated at 37° C., 5% CO2 for 1 day. After the incubation, compounds were added at day 2 and LPS was added at day 3. A compound source plate was prepared by triplicate five-point 10-fold or 2-fold serial dilutions in DMSO, beginning at 1 mM (final top concentration of compounds of Examples in the assay was 100 μM and the DMSO was 0.1%). The positive control consisted of cells treated with 100 μM erythromycin and negative control was consisted of 0.1% DMSO treated cells. LPS stock solution at 5 mg/mL was made by dissolving 10 mg of LPS powder into 2 mL of ddH2O and aliquoted to 100 μL per vial. Final concentration of LPS in the assay was […] by making 125-fold dilution of stock solution with medium.
Specific immunoreactivity for IL-8 in culture supernatants were measured by a commercially available ELISA kits (R&D Systems, Inc., Minneapolis, Minn.). Each sample was assayed in duplicates as recommended by the manufacture. The concentration of compounds of Examples inhibiting IL-8 production on BEAS-2B by 10% was estimated from a 4-parametric of the normalized dose response curve. (IC10)

F [1]: 21.8%
MIC [3]: 16 µg/mL (≈ 21.8 µM)
MIC [4]: < 0.125 µg/mL
MIC [5]: < 0.125 µg/mL
MIC [6]: 1 µg/mL (≈ 1.36 µM)
MIC [7]: < 0.125 µg/mL
MIC [8]: 64 µg/mL (≈ 87.2 µM)
MIC [9]: 0.5 µg/mL (≈ 0.681 µM)
MIC [10]: 64 µg/mL (≈ 87.2 µM)
MIC [11]: 2 µg/mL (≈ 2.73 µM)
MIC [12]: 16 µg/mL (≈ 21.8 µM)
SMILES: CC[C@H]1OC(=O)[C@H](C)[C@@H](O[C@H]2C[C@@](C)(OC)[C@@H](O)[C@H](C)O2)[C@H](C)[C@@H](O[C@@H]2O[C@H](C)C[C@H](N(C)C)[C@H]2O)[C@](C)(O)C[C@@H](C)C(=O)[C@H](C)[C@@H](O)[C@]1(C)O [Erythromycin, reference compound]
inflammatory cell infiltration and enlargement of alveolus (lung histology) ([2]; 100 mg/kg orally twice per day, 12th to 24th week, vs CS group): significantly attenuated
total cell count and number of macrophages and neutrophils in BALF ([2]; 100 mg/kg orally twice per day, compared to the smoking group): significantly lower
airway resistance and total lung capacity ([2]; oral administration of 100 mg/kg, 24 weeks smoke exposure): reduced two parameters and partially recovered lung function
LPS-induced IL-8 release [13]: significantly inhibited

Reference: patent US20230068020A1, “MACROLIDE COMPOUND AND ITS USE OF TREATMENT CHRONIC RESPIRATORY DISEASE” (priority 2020, published 2023)
